In patent US10112906B2, “1-aryl-3-alkylpyrazole insecticides” (E. I. DU PONT DE NEMOURS AND COMPANY, priority 2013, dated 2018):

Assays:
Type in all cases: in vivo
[1] = tested on: fall armyworm (Spodoptera frugiperda (J. E. Smith)); assay: Test B: control of fall armyworm, foliar spray on corn (maize) plant; settings: 1-day-old larvae, assessed after 6 days
Protocol: (§1) Test compounds were formulated using a solution containing 10% acetone, 90% water and 300 ppm X-77® Spreader Lo-Foam Formula non-ionic surfactant containing alkylarylpolyoxyethylene, free fatty acids, glycols and isopropanol (Loveland Industries, Inc. Greeley, Colo., USA). The formulated compounds were applied in 1 mL of liquid through a SUJ2 atomizer nozzle with ⅛ JJ custom body (Spraying Systems Co. Wheaton, Ill., USA) positioned 1.27 cm (0.5 inches) above the top of each test unit. Test compounds were sprayed at the rates indicated, and each test was replicated three times.
For evaluating control of fall armyworm (Spodoptera frugiperda (J. E. Smith)) the test unit consisted of a small open container with a 4-5-day-old corn (maize) plant inside. This was pre-infested with 10-15 1-day-old larvae on a piece of insect diet.
(§2) Test compounds were formulated and sprayed at 250 and/or 50 ppm. After spraying of the formulated test compound, the test units were maintained in a growth chamber for 6 days at 25° C. and 70% relative humidity. Plant feeding damage was then visually assessed based on foliage consumed, and larvae were assessed for mortality.

[2] = tested on: Western Flower Thrips (Frankliniellla occidentalis (Pergande)); assay: Test F: control of Western Flower Thrips through contact and/or systemic means; settings: sprayed at 250 ppm; Soleil bean plant, adult thrips; held for 6 days
Protocol: as §1
For evaluating control of the Western Flower Thrips (Frankliniellla occidentalis (Pergande)) through contact and/or systemic means, the test unit consisted of a small open container with a 5-7-day-old Soleil bean plant inside.
Test compounds were formulated and sprayed at 250 ppm. After spraying, the test units were allowed to dry for 1 hour, and then 22-27 adult thrips were added to each unit. A black, screened cap was placed on top, and the test units were held for 6 days at 25° C. and 45-55% relative humidity.

[3] = tested on: corn planthopper (Peregrinus maidis (Ashmead)); assay: Test C: control of corn planthopper through contact and/or systemic means; settings: 144 h, sprayed at 250 ppm, corn (maize) plant, nymphs, assessed after 6 days
Protocol: as §1
For evaluating control of corn planthopper (Peregrinus maidis (Ashmead)) through contact and/or systemic means, the test unit consisted of a small open container with a 3-4-day-old corn (maize) plant inside. White sand was added to the top of the soil prior to application of the test compound.
(§3) Test compounds were formulated and sprayed at 250 and/or 50 ppm. After spraying of the formulated test compound, the test units were allowed to dry for 1 h before they were post-infested with ˜15-20 nymphs (18-to-21-day-old). A black, screened cap was placed on the top of each test unit, and the test units were held for 6 days in a growth chamber at 22-24° C. and 50-70% relative humidity. Each test unit was then visually assessed for insect mortality.

[4] = tested on: potato leafhopper (Empoasca fabae (Harris)); assay: Test D: control of potato leafhopper through contact and/or systemic means; settings: 144 h, Soleil bean plant, adults, assessed after 6 days; for mortality at 250 ppm: sprayed at 250 ppm
Protocol: as §1
For evaluating control of potato leafhopper (Empoasca fabae (Harris)) through contact and/or systemic means, the test unit consisted of a small open container with a 5-6-day-old Soleil bean plant (primary leaves emerged) inside. White sand was added to the top of the soil, and one of the primary leaves was excised prior to application of the test compound.
as §3, with “1 hour” for “1 h”, “with 5 potato leafhoppers (18-to-21-day-old adults).” for “with ˜15-20 nymphs (18-to-21-day-old).”, “of the” for “of each”, “at 20°” for “at 22-24°”, “and 70%” for “and 50-70%”

[5] = tested on: diamondback moth (Plutella xylostella (L.)); assay: Test A: control of diamondback moth, foliar spray on mustard plant; settings: neonate larvae, assessed after 6 days
Protocol: as §1
For evaluating control of diamondback moth (Plutella xylostella (L.)) the test unit consisted of a small open container with a 12-14-day-old mustard plant inside. This was pre-infested with ˜50 neonate larvae that were dispensed into the test unit via corn cob grits using an inoculator. The larvae moved onto the test plant after being dispensed into the test unit.
as §2, with “compound, each test unit was allowed to dry for 1 hour and then a black, screened cap was placed on top. The” for “compound, the”, “were held for 6 days” for “were maintained”, “chamber” for “chamber for 6 days”

[6] = tested on: green peach aphid (Myzus persicae (Sulzer)); assay: Test E: control of green peach aphid through contact and/or systemic means; settings: 144 h, radish plant, assessed after 6 days; for mortality at 250 ppm: sprayed at 250 ppm
Protocol: as §1
For evaluating control of green peach aphid (Myzus persicae (Sulzer)) through contact and/or systemic means, the test unit consisted of a small open container with a 12-15-day-old radish plant inside. This was pre-infested by placing on a leaf of the test plant 30-40 aphids on a piece of leaf excised from a culture plant (cut-leaf method). The aphids moved onto the test plant as the leaf piece desiccated. After pre-infestation, the soil of the test unit was covered with a layer of sand.
Test compounds were formulated and sprayed at 250 and/or 50 ppm. After spraying of the formulated test compound, each test unit was allowed to dry for 1 hour and then a black, screened cap was placed on top. The test units were held for 6 days in a growth chamber at 19-21° C. and 50-70% relative humidity. Each test unit was then visually assessed for insect mortality.

Row | Structure (SMILES) | control efficacy (40% or less feeding damage and/or 100% mortality) ([1]; sprayed at 50 ppm) | control efficacy (40% or less feeding damage and/or 100% mortality) ([1]; sprayed at 250 ppm) | control efficacy (30% or less plant damage and/or 100% mortality) [2] | mortality at 250 ppm [3] [%] | mortality at 50 ppm ([4]; sprayed at 50 ppm) [%] | mortality at 250 ppm [4] [%] | control efficacy (40% or less feeding damage and/or 100% mortality) ([5]; sprayed at 50 ppm) | control efficacy (40% or less feeding damage and/or 100% mortality) ([5]; sprayed at 250 ppm) | mortality at 250 ppm [6] [%] | mortality at 50 ppm ([6]; sprayed at 50 ppm) [%]
1 | FC(F)(F)c1ccnc(-n2cc(CN3CCC(C(F)(F)F)CC3)c(C3CCCC3)n2)c1 [Compound 25, 2-[3-cyclopentyl-4-[[4-(trifluoromethyl)-1-piperidinyl]methyl]-1H-pyrazol-1-yl]-4-(trifluoromethyl)pyridine] | very good to excellent levels of control efficacy | very good to excellent levels of control efficacy | very good to excellent levels of control efficacy | ≥ 80 | ≥ 80 | ≥ 80 | very good to excellent levels of control efficacy | very good to excellent levels of control efficacy | ≥ 80 | –
2 | N#CC1CCN(Cc2cn(-c3cc(C(F)(F)F)ccn3)nc2C2CCCC2)CC1 [Compound 26, 1-[[3-cyclopentyl-1-[4-(trifluoromethyl)-2-pyridinyl]-1H-pyrazol-4-yl]methyl]-4-piperidinecarbonitrile] | very good to excellent levels of control efficacy | very good to excellent levels of control efficacy | very good to excellent levels of control efficacy | – | – | ≥ 80 | very good to excellent levels of control efficacy | very good to excellent levels of control efficacy | ≥ 80 | ≥ 80
3 | N#CC1CCN(Cc2cn(-c3ccc(Cl)c(Cl)c3)nc2C2CCC2)CC1 [Compound 27] | very good to excellent levels of control efficacy | very good to excellent levels of control efficacy | very good to excellent levels of control efficacy | – | – | – | very good to excellent levels of control efficacy | very good to excellent levels of control efficacy | – | –
